Experimental data from the NIST ThermoML archive (doi:10.1016/j.jct.2005.11.003).
± gives the expanded uncertainty stated by the source.

Columns and labels:
[1] = xn = mol fraction of the nth substance listed; conditions: 298.15 K, 101 kPa, Liquid
[2] = excess molar enthalpy (molar enthalpy of mixing); xn = mol fraction of the nth substance listed; conditions: 298.15 K, 101 kPa, Liquid
[3] = refractive index (Na D-line) (dimensionless); conditions: 298.15 K; 101.33 kPa; Liquid
[4] = 298.15 K; 101.33 kPa; Liquid

ClCCCl [1,2-dichloroethane] + CCCCOC(C)=O
[1]
Conditions | mass density [kg/m3]
x2 = 0.0359 | 1223.55 ± 0.58
x2 = 0.0733 | 1201.71 ± 0.56
x2 = 0.1139 | 1178.94 ± 0.55
x2 = 0.1559 | 1156.86 ± 0.53
x2 = 0.1988 | 1135.53 ± 0.53
x2 = 0.2456 | 1113.51 ± 0.52
x2 = 0.2953 | 1091.52 ± 0.52
x2 = 0.3469 | 1070.08 ± 0.52
x2 = 0.4021 | 1048.45 ± 0.52
x2 = 0.4599 | 1027.18 ± 0.53
x2 = 0.5233 | 1005.31 ± 0.54
x2 = 0.5883 | 984.3 ± 0.56
x2 = 0.6585 | 963 ± 0.59
x2 = 0.7344 | 941.52 ± 0.63
x2 = 0.8173 | 919.59 ± 0.66
x2 = 0.9013 | 898.96 ± 0.7

CCCCOC(=O)CC [butyl propanoate] + ClCCCl
[1]
Conditions | mass density [kg/m3]
x1 = 0.0334 | 1222.24 ± 0.57
x1 = 0.0679 | 1199.39 ± 0.55
x1 = 0.1032 | 1177.4 ± 0.52
x1 = 0.1419 | 1154.78 ± 0.5
x1 = 0.1821 | 1132.96 ± 0.48
x1 = 0.2255 | 1110.88 ± 0.46
x1 = 0.2719 | 1088.82 ± 0.44
x1 = 0.3218 | 1066.84 ± 0.43
x1 = 0.3754 | 1044.9 ± 0.41
x1 = 0.4321 | 1023.34 ± 0.4
x1 = 0.4959 | 1001.02 ± 0.4
x1 = 0.5617 | 979.72 ± 0.42
x1 = 0.636 | 957.49 ± 0.44
x1 = 0.7142 | 936.1 ± 0.46
x1 = 0.804 | 913.62 ± 0.49
x1 = 0.8938 | 893.14 ± 0.52

CCCCOC(=O)CCC [butyl butanoate] + ClCCCCl
[1]
Conditions | mass density [kg/m3]
x1 = 0.0357 | 1159.7 ± 0.7
x1 = 0.0715 | 1141.38 ± 0.67
x1 = 0.1103 | 1122.7 ± 0.65
x1 = 0.1503 | 1104.39 ± 0.63
x1 = 0.1936 | 1085.72 ± 0.61
x1 = 0.2376 | 1067.78 ± 0.59
x1 = 0.2869 | 1048.84 ± 0.57
x1 = 0.3371 | 1030.74 ± 0.55
x1 = 0.3921 | 1012.12 ± 0.53
x1 = 0.4496 | 993.89 ± 0.52
x1 = 0.5117 | 975.49 ± 0.52
x1 = 0.5785 | 957.03 ± 0.52
x1 = 0.6494 | 938.78 ± 0.52
x1 = 0.7262 | 920.43 ± 0.53
x1 = 0.8114 | 901.61 ± 0.53
x1 = 0.8978 | 884.02 ± 0.54

CCCCOC(=O)CCC [butyl butanoate] + ClCCCCCl
[1]
Conditions | mass density [kg/m3]
x1 = 0.0415 | 1117.54 ± 0.64
x1 = 0.0836 | 1101.67 ± 0.63
x1 = 0.1727 | 1070.09 ± 0.59
x1 = 0.2202 | 1054.28 ± 0.57
x1 = 0.322 | 1022.51 ± 0.54
x1 = 0.3752 | 1006.99 ± 0.53
x1 = 0.4319 | 991.17 ± 0.52
x1 = 0.4904 | 975.58 ± 0.52
x1 = 0.554 | 959.43 ± 0.52
x1 = 0.6186 | 943.82 ± 0.52
x1 = 0.7579 | 912.57 ± 0.53
x1 = 0.8338 | 896.78 ± 0.54
x1 = 0.9131 | 881.09 ± 0.54

ClCCCCCl [1,4-dichlorobutane] + CCCCOC(=O)CC
[1]
Conditions | mass density [kg/m3]
x2 = 0.0475 | 1117.36 ± 0.64
x2 = 0.0925 | 1102.34 ± 0.63
x2 = 0.1874 | 1072.01 ± 0.59
x2 = 0.239 | 1056.26 ± 0.58
x2 = 0.29 | 1041.21 ± 0.56
x2 = 0.3443 | 1025.65 ± 0.54
x2 = 0.4006 | 1010.07 ± 0.53
x2 = 0.5171 | 979.4 ± 0.52
x2 = 0.5798 | 963.71 ± 0.52
x2 = 0.6418 | 948.74 ± 0.52
x2 = 0.7075 | 933.4 ± 0.52
x2 = 0.8474 | 902.46 ± 0.53
x2 = 0.8829 | 894.96 ± 0.54
x2 = 0.9206 | 887.11 ± 0.54
x2 = 0.9575 | 879.61 ± 0.54

ClCCCCCl [1,4-dichlorobutane] + CCCCOC=O
Conditions | excess molar enthalpy [kcal/mol] | mass density [kg/m3]
[1], x2 = 0.0582 | – | 1119.16 ± 0.7
[1], x2 = 0.1167 | – | 1104.56 ± 0.75
[1], x2 = 0.1724 | – | 1090.7 ± 0.79
[1], x2 = 0.2316 | – | 1075.99 ± 0.84
[1], x2 = 0.286 | – | 1062.54 ± 0.88
[1], x2 = 0.345 | – | 1047.97 ± 0.92
[1], x2 = 0.4055 | – | 1033.06 ± 0.97
[1], x2 = 0.522 | – | 1004.48 ± 1.1
[1], x2 = 0.5808 | – | 990.11 ± 1.1
[1], x2 = 0.6408 | – | 975.5 ± 1.1
[1], x2 = 0.6992 | – | 961.32 ± 1.2
[1], x2 = 0.76 | – | 946.59 ± 1.2
[1], x2 = 0.8183 | – | 932.5 ± 1.3
[1], x2 = 0.8774 | – | 918.24 ± 1.3
[1], x2 = 0.9363 | – | 904.07 ± 1.4
[2], x2 = 0.049 | 0.00688 ± 0.000956 | –
[2], x2 = 0.1112 | 0.0112 ± 0.0011 | –
[2], x2 = 0.1816 | 0.0137 ± 0.00117 | –
[2], x2 = 0.2472 | 0.0151 ± 0.00122 | –
[2], x2 = 0.3099 | 0.0138 ± 0.00117 | –
[2], x2 = 0.3701 | 0.0111 ± 0.00108 | –
[2], x2 = 0.4257 | 0.00784 ± 0.00098 | –
[2], x2 = 0.4725 | 0.00366 ± 0.00086 | –
[2], x2 = 0.5121 | 7.17e-05 | –
[2], x2 = 0.5471 | -0.00237 ± 0.000813 | –
[2], x2 = 0.5819 | -0.00519 ± 0.000908 | –
[2], x2 = 0.6245 | -0.00827 ± 0.001 | –
[2], x2 = 0.6718 | -0.0104 ± 0.00108 | –
[2], x2 = 0.7351 | -0.0123 ± 0.00112 | –
[2], x2 = 0.8039 | -0.0108 ± 0.00108 | –
[2], x2 = 0.8728 | -0.00805 ± 0.001 | –
[2], x2 = 0.9412 | -0.00421 ± 0.000884 | –

ClCCCCCCl [1,5-dichloropentane] + CCCCOC(C)=O
[1]
Conditions | mass density [kg/m3]
x2 = 0.0558 | 1082.62 ± 0.62
x2 = 0.1119 | 1070.12 ± 0.62
x2 = 0.1697 | 1057.27 ± 0.62
x2 = 0.2268 | 1044.6 ± 0.62
x2 = 0.3432 | 1018.88 ± 0.62
x2 = 0.4608 | 993.04 ± 0.63
x2 = 0.5786 | 967.32 ± 0.66
x2 = 0.6957 | 941.92 ± 0.68
x2 = 0.8167 | 915.81 ± 0.7
x2 = 0.8757 | 903.13 ± 0.71
x2 = 0.9364 | 890.15 ± 0.73

ClCCCCCl [1,4-dichlorobutane] + CCCCOC(C)=O
[1]
Conditions | mass density [kg/m3]
x2 = 0.0529 | 1117.81 ± 0.66
x2 = 0.1035 | 1102.8 ± 0.65
x2 = 0.1569 | 1087.25 ± 0.65
x2 = 0.2092 | 1072.35 ± 0.65
x2 = 0.2638 | 1057.04 ± 0.64
x2 = 0.3207 | 1041.46 ± 0.64
x2 = 0.3754 | 1026.74 ± 0.64
x2 = 0.4326 | 1011.67 ± 0.64
x2 = 0.4906 | 996.66 ± 0.64
x2 = 0.5505 | 981.49 ± 0.65
x2 = 0.6125 | 966.12 ± 0.66
x2 = 0.6735 | 951.29 ± 0.68
x2 = 0.7365 | 936.28 ± 0.69
x2 = 0.8011 | 921.17 ± 0.7
x2 = 0.8692 | 905.6 ± 0.71
x2 = 0.9352 | 890.8 ± 0.73

CCCCOC(=O)CC [butyl propanoate]
Conditions | mass density [kg/m3] | refractive index
[3] | – | 1.399 ± 0.001
[4] | 871.08 ± 0.96 | –

CCCCOC(=O)CCC [butyl butanoate]
Conditions | mass density [kg/m3] | refractive index
[3] | – | 1.404 ± 0.001
[4] | 864.84 ± 0.98 | –

CCCCOC(C)=O [butyl ethanoate]
Conditions | mass density [kg/m3] | refractive index
[3] | – | 1.3918 ± 0.001
[4] | 876.4 ± 1.1 | –

CCCCOC(=O)CCC [butyl butanoate] + ClCCCCCCl
[1]
Conditions | mass density [kg/m3]
x1 = 0.0481 | 1081.06 ± 0.6
x1 = 0.0957 | 1067.51 ± 0.59
x1 = 0.1451 | 1053.83 ± 0.57
x1 = 0.1939 | 1040.72 ± 0.56
x1 = 0.2465 | 1026.89 ± 0.55
x1 = 0.3533 | 1000.09 ± 0.52
x1 = 0.4105 | 986.32 ± 0.52
x1 = 0.5282 | 959.19 ± 0.52
x1 = 0.6536 | 932.02 ± 0.52
x1 = 0.7875 | 904.75 ± 0.53
x1 = 0.8568 | 891.25 ± 0.54

ClCCCCl [1,3-dichloropropane] + CCCCOC=O
Conditions | excess molar enthalpy [kcal/mol] | mass density [kg/m3]
[1], x2 = 0.0501 | – | 1161.72 ± 0.75
[1], x2 = 0.101 | – | 1144.33 ± 0.78
[1], x2 = 0.1527 | – | 1127.13 ± 0.81
[1], x2 = 0.2078 | – | 1109.19 ± 0.85
[1], x2 = 0.2601 | – | 1092.54 ± 0.89
[1], x2 = 0.3145 | – | 1075.53 ± 0.92
[1], x2 = 0.3712 | – | 1058.26 ± 0.96
[1], x2 = 0.487 | – | 1024.07 ± 1
[1], x2 = 0.6083 | – | 989.86 ± 1.1
[1], x2 = 0.6701 | – | 973.02 ± 1.2
[1], x2 = 0.7342 | – | 955.9 ± 1.2
[1], x2 = 0.7984 | – | 939.11 ± 1.3
[1], x2 = 0.8657 | – | 921.98 ± 1.3
[1], x2 = 0.9315 | – | 905.54 ± 1.4
[2], x2 = 0.046 | 0.00296 ± 0.000837 | –
[2], x2 = 0.0992 | 0.00421 ± 0.00086 | –
[2], x2 = 0.1566 | 0.00351 ± 0.00086 | –
[2], x2 = 0.2391 | 0.00153 ± 0.000789 | –
[2], x2 = 0.2953 | -0.00098 ± 0.000765 | –
[2], x2 = 0.3467 | -0.00392 ± 0.00086 | –
[2], x2 = 0.3972 | -0.00822 ± 0.001 | –
[2], x2 = 0.4442 | -0.013 ± 0.00115 | –
[2], x2 = 0.4874 | -0.0174 ± 0.00129 | –
[2], x2 = 0.5293 | -0.0205 ± 0.00139 | –
[2], x2 = 0.5696 | -0.0213 ± 0.00141 | –
[2], x2 = 0.6134 | -0.0219 ± 0.00141 | –
[2], x2 = 0.6636 | -0.0217 ± 0.00141 | –
[2], x2 = 0.7143 | -0.0213 ± 0.00141 | –
[2], x2 = 0.7798 | -0.0192 ± 0.00134 | –
[2], x2 = 0.8596 | -0.0142 ± 0.00117 | –
[2], x2 = 0.9334 | -0.00782 ± 0.00098 | –
